According to patent US20220071233A1, “IN VITRO INSECT MUSCLE AS A NUTRITION SOURCE” (Trustees of Tufts College, priority 2018, published 2022):
“Also recorded” adds a separate entry of the source.

What was measured:
[1] = test system: DrAMPCs; assay: Agitated suspension culture in shaker flasks (aggregation); assay type: cell-based, Drosophila melanogaster; settings: 100 μg/mL dextran sulfate in EC405, shaker flasks
Experimental: It was noted that when static culture flasks became over-confluent, the cells continued to grow in three-dimensional aggregates or in suspension. […] The cells were then transitioned from static suspension culture to agitated suspension culture with the use of shaker flasks incubated at room temperature. In agitated suspension, the cells formed aggregates (FIG. 1G). […] After expansion in suspension culture and removal of dextran sulfate, the cells transitioned back to adherent monolayers and retained a myoblast-like morphology.
Drosophila melanogaster adult muscle progenitor-like cells (DrAMPCs) were acquired from Kerafast (Boston, Mass.) (#EF4006). The cell line was originally immortalized by the Persimmon Research Group at Harvard University, and was derived from primary embryo cultures in which Gal4 drives Ras^V12 and GFP expression. DrAMPCs were cultured in insect growth media composed of Schneider's Insect Medium from Sigma-Aldrich (St. Louis, Mo.) (#S0146) supplemented with 10% heat inactivated fetal bovine serum from ThermoFisher (Waltham, Mass.) (#16140) and 1% penicillin/streptomycin (ThermoFisher, #15140122). For serum-free growth media experiments, media consisted of Ex-Cell 405 Serum-Free Medium (Sigma-Aldrich, #14405C) and 1% penicillin/streptomycin. […]

[2] = test system: DrAMPCs; assay: Surface coatings: myosin heavy chain expression and cell attachment (image fluorescence quantification); assay type: cell-based, Drosophila melanogaster; settings: cultures on coated surface
[3] = test system: DrAMPCs; assay: CyQuant proliferation assay after hormone treatment; assay type: cell-based, Drosophila melanogaster
Experimental: Drosophila melanogaster adult muscle progenitor-like cells (DrAMPCs) were acquired from Kerafast (Boston, Mass.) (#EF4006). The cell line was originally immortalized by the Persimmon Research Group at Harvard University, and was derived from primary embryo cultures in which Gal4 drives Ras^V12 and GFP expression. DrAMPCs were cultured in insect growth media composed of Schneider's Insect Medium from Sigma-Aldrich (St. Louis, Mo.) (#S0146) supplemented with 10% heat inactivated fetal bovine serum from ThermoFisher (Waltham, Mass.) (#16140) and 1% penicillin/streptomycin (ThermoFisher, #15140122). For serum-free growth media experiments, media consisted of Ex-Cell 405 Serum-Free Medium (Sigma-Aldrich, #14405C) and 1% penicillin/streptomycin. For static culture, DrAMPCs were cultured in either plasma-treated flasks (ThermoFisher, #156499) or ultra-low attachment flasks (Corning, N.Y.) (#CLS3814) and incubated at 19° C. in a temperature-controlled incubator from VWR (Radnor, Pa.) (#89511-416). For suspension culture, DrAMPCs were cultured in shaker flasks (ThermoFisher, #4115-0250) on an orbital shaker set at 40 rpm at room temperature. When indicated, dextran sulfate (Sigma-Aldrich, #67578) was supplemented to serum-free media by dissolution and sterile filtration with 0.2 μm bottle top filters (ThermoFisher, #595-3320). For hormone treatment and differentiation experiments, DrAMPCs were cultured in insect growth media or serum-free media supplemented with methoprene (Sigma-Aldrich, #33375) and/or 20-hydroxyecdysone (Sigma-Aldrich, #H5142) which were dissolved in DMSO (Sigma-Aldrich, #D8418). DrAMPCs were seeded at 75,000 or 300,000 cells/cm^2 in 2D culture and 1,000,000 cells/sponge in 3D culture. […]
Cell adhesion to tissue culture plastic and chitosan films was quantified via a MTS Assay from Promega (Madison, Wis.) (#G3582) by measuring absorbance after 2.5-hour incubation with the MTS reagent. Cell proliferation and viability were measured by fluorescence, Live/Dead kit (ThermoFisher, #L3224) stained image analysis or CyQuant proliferation assays (ThermoFisher, #C7026). For fluorescence measurements, GFP-expressing DrAMPCs were imaged on a fluorescence microscope over the course of a week using the automated multi-point capture feature. Fluorescence was quantified on Fiji software and normalized to the values determined at the first time-point. For Live/Dead stained image analysis, cells were stained following the kit protocols and imaged on a fluorescence microscope. The images were analyzed with Fiji to quantify the viability and total cell population over time. […] Microplate measurements were performed on a SpectraMax M2 reader from Molecular Devices (San Jose, Calif.). Cell populations were determined from a standard curve.

[4] = test system: DrAMPCs; assay: Cell elongation and differentiation after hormone treatment (image analysis, immunostaining); assay type: cell-based, Drosophila melanogaster
Experimental: Drosophila melanogaster adult muscle progenitor-like cells (DrAMPCs) were acquired from Kerafast (Boston, Mass.) (#EF4006). The cell line was originally immortalized by the Persimmon Research Group at Harvard University, and was derived from primary embryo cultures in which Gal4 drives Ras^V12 and GFP expression. DrAMPCs were cultured in insect growth media composed of Schneider's Insect Medium from Sigma-Aldrich (St. Louis, Mo.) (#S0146) supplemented with 10% heat inactivated fetal bovine serum from ThermoFisher (Waltham, Mass.) (#16140) and 1% penicillin/streptomycin (ThermoFisher, #15140122). For serum-free growth media experiments, media consisted of Ex-Cell 405 Serum-Free Medium (Sigma-Aldrich, #14405C) and 1% penicillin/streptomycin. For static culture, DrAMPCs were cultured in either plasma-treated flasks (ThermoFisher, #156499) or ultra-low attachment flasks (Corning, N.Y.) (#CLS3814) and incubated at 19° C. in a temperature-controlled incubator from VWR (Radnor, Pa.) (#89511-416). For suspension culture, DrAMPCs were cultured in shaker flasks (ThermoFisher, #4115-0250) on an orbital shaker set at 40 rpm at room temperature. When indicated, dextran sulfate (Sigma-Aldrich, #67578) was supplemented to serum-free media by dissolution and sterile filtration with 0.2 μm bottle top filters (ThermoFisher, #595-3320). For hormone treatment and differentiation experiments, DrAMPCs were cultured in insect growth media or serum-free media supplemented with methoprene (Sigma-Aldrich, #33375) and/or 20-hydroxyecdysone (Sigma-Aldrich, #H5142) which were dissolved in DMSO (Sigma-Aldrich, #D8418). DrAMPCs were seeded at 75,000 or 300,000 cells/cm^2 in 2D culture and 1,000,000 cells/sponge in 3D culture. For mammalian controls, C2C12 cells from ATTC (Manassas, Va.) (#CRL-1772) were cultured in growth media composed of DMEM+Glutamax (ThermoFisher, #10566) supplemented with 10% heat inactivated fetal bovine serum and 1% penicillin/streptomycin. C2C12s were seeded at 10,000 cells/cm^2.
Cell viability was determined by a Live/Dead staining kit (ThermoFisher, #L3224). At time of assay, media was gently aspirated from the cell surface and cells were rinsed with phosphate buffered saline (PBS) (ThermoFisher, #14040133). Cells were stained with 2 μM calcein AM and 4 μM EthD-1 solution for 30 minutes at room temperature in the dark and imaged with a fluorescence microscope. For immunocytochemical staining, media was gently aspirated from cells and the cell surface was rinsed with PBS. Cells were fixed with 4% paraformaldehyde from Fisher Scientific (Hampton, N.H.) (#J61899AK) for 10 minutes and rinsed with PBS. Cells were then permeabilized with 0.5% Triton X-100 and rinsed with blocking buffer consisting of phosphate buffered saline, 5% fetal bovine serum and 0.05% sodium azide. Cells were incubated in blocking buffer for 15 minutes before addition of primary antibody, then incubated at 4° C. overnight. Cells were rinsed and incubated with fresh blocking buffer for 15 minutes before addition of secondary antibody, then incubated in the dark on ice for 1 hour. Again, cells were rinsed and incubated with fresh blocking buffer for 15 minutes before counterstaining and mounting with DAPI mounting medium from Abcam (Cambridge, UK) (#ab104139). Detailed antibody information is available in Table 5. Fluorescence imaging was performed on a Keyence microscope (Osaka, Japan) (#BZ-X700). Confocal imaging was performed on a TCS SP8 microscope from Leica Microsystems (Wetzlar, Germany).

[5] = average adult; cited from earlier work
[6] = test system: DrAMPCs; assay: Adhesion and growth on mushroom chitosan films (MTS assay, fluorescence microscopy); assay type: cell-based, Drosophila melanogaster; settings: 0.1% gelatin solution coating
Experimental: Cell adhesion to tissue culture plastic and chitosan films was quantified via a MTS Assay from Promega (Madison, Wis.) (#G3582) by measuring absorbance after 2.5-hour incubation with the MTS reagent. Cell proliferation and viability were measured by fluorescence, Live/Dead kit (ThermoFisher, #L3224) stained image analysis or CyQuant proliferation assays (ThermoFisher, #C7026). For fluorescence measurements, GFP-expressing DrAMPCs were imaged on a fluorescence microscope over the course of a week using the automated multi-point capture feature. Fluorescence was quantified on Fiji software and normalized to the values determined at the first time-point. For Live/Dead stained image analysis, cells were stained following the kit protocols and imaged on a fluorescence microscope. The images were analyzed with Fiji to quantify the viability and total cell population over time. For CyQuant proliferation assays, cells were plated in 96-well plates for each time-point. At each time-point, media was blotted from the plates and plates were stored at −80° C. After all time-points were collected, plates were thawed to room temperature and stained with CyQuant working solution for 5 minutes. Microplate measurements were performed on a SpectraMax M2 reader from Molecular Devices (San Jose, Calif.). Cell populations were determined from a standard curve. […]

[7] = test system: DrAMPCs; assay: Adhesion and differentiation on chitosan sponge scaffolds; assay type: cell-based, Drosophila melanogaster
Experimental: Mushroom chitosan of 100 kDa molecular weight from Chinova Bioworks (New Brunswick, Canada) was dissolved in 2% acetic acid in distilled water for 12 hours at room temperature on a stir plate. The chitosan solution was centrifuged at 16,880×g for 3 hours to remove undissolved particles and diluted in distilled water to the desired concentrations (1%, 2% and 4%). Concentrations were verified by drying small volumes at 60° C. for 2 hours and calculating dry weight/wet weight. To prepare films, the solution was cast on plastic and allowed to dry overnight. To prepare sponges, the solution was poured into PDMS molds with an aluminum sheet separating one side of the mold from a separate chamber. Liquid nitrogen was poured into the chamber opposite the chitosan solution and continually replenished until the entire solution had frozen across the temperature gradient. Samples were then lyophilized for 48 hours. Prior to sterilization and seeding, films and sponges were submerged in 1M sodium carbonate for 1 hour at room temperature and subsequently rinsed three times in distilled water for 20 minutes and soaked in distilled water overnight. For hydrated mechanical analysis, sectioned sponges were soaked in PBS prior to testing.
Sponges used for seeding were cylinders 6 mm in diameter and 1.5 mm thick. […]

[8] = test system: Manduca sexta embryonic precursor cell (Ms-EPCs); assay: Ms-EPC culture and differentiation; assay type: cell-based
[9] = test system: DrAMPCs; assay: Potassium induced contraction; assay type: cell-based, Drosophila melanogaster
Experimental: Cells were differentiated for 5 days before the experiment. High K+ concentration media was produced by dissolving KCl in growth media at the indicated concentration. Cells were imaged on a Phase Contrast microscope before growth media was aspirated and replaced with 600 mM K+ media. Cells were imaged over a duration of 15 minutes.

[10] = both serum-supplemented and serum-free cultures

With dextran sulfate the “cell aggregation in agitated suspension” value [1] was “sufficient to reduce aggregation and promote a single cell suspension” and the “cell aggregation in agitated suspension” value ([1]; listed as Dextran sulfate) was “sufficient to reduce cell aggregation”.

In the case of laminin, the cell attachment [2] was “do not increase cell attachment” and the “expression of myosin heavy chain in differentiated DrAMPCs” value [2] was “may increase”.

For `COC(C)(C)CCC[C@H](C)C/C=C/C(C)=C/C(=O)OC(C)C` (racemic) [methoprene], the “comparison of treatment levels on proliferation” value ([3]; 500 ng/mL vs 1,000 ng/mL) was “the 500 ng/mL treatment level had a larger effect than the 1,000 ng/mL treatment”, the “proliferation versus control groups” value ([3]; 500 or 1,000 ng/mL, day 1 and 5) was “higher proliferation than control groups” and the proliferation [3, 10] was “increased proliferation”. For the same compound, the “average cell length less than control cells” value ([4]; 500 ng/mL) was 8 μm, the “cell elongation (preliminary sign of differentiation)” value ([4]; JH treatment) was “inhibited cell elongation” and the recommended exposure [5] was 0.3750 mg/day.

With gelatin the “cell adhesion and growth on gelatin-coated chitosan films” value [6] was “did not increase cell adhesion to chitosan films; also recorded: grow in aggregates and were detached from the center of the well during the PBS rinse” and the “cell adhesion to gelatin coated tissue culture plastic” value [6] was “improve cell adhesion”.

In the case of `CC(C)(O)CC[C@@H](O)[C@](C)(O)[C@H]1CC[C@@]2(O)C3=CC(=O)[C@@H]4C[C@@H](O)[C@@H](O)C[C@]4(C)[C@H]3CC[C@]12C` [20-hydroxyecdysone], the “growth rates versus control groups” value ([3]; 0, 500 or 1000 ng/mL 20-HE) was “did not significantly differ from control groups”, the “concentration able to trigger cell elongation” value ([4]; as low as) was 40 ng/mL and the differentiation [4, 10] was “triggered differentiation”. For the same compound, the “differentiation of EC405 adapted cells” value ([4]; small fraction of cells, 1 μg/mL 20-HE for 5 days) was “differentiate and form long, multinucleated myotubes that express myosin heavy chain”, the “generation of myosin heavy chain-expressing cells” value ([7]; on plastic and chitosan scaffolds) was “myosin heavy chain-expressing cells could be generated (albeit at low efficiency)” and the “fraction of cells on chitosan scaffolds differentiated” value ([7]; treated with 20-hydroxyecdysone) was less than 1%. For the same compound, the “differentiation of primary Ms-EPC cells” value ([8]; differentiated with 20-hydroxyecdysone) was “multinucleated, striated and express myosin heavy chain”.

In the case of Concanavalin A, the cell attachment [2] was “do not increase cell attachment” and the “expression of myosin heavy chain in differentiated DrAMPCs” value [2] was “may increase”.

With poly-lysine the “cell morphology of Ms-EPCs” value ([8]; poly-lysine coated plastic) was “more cell elongation, perhaps differentiation”.

For `[Cl-].[K+]` [K^+, KCl], the “cell viability after potassium treatment” value [9] was 95%, the cell contraction ([9]; 300 mM K+) was “did not contract” and the cell contraction ([9]; 600 mM K+) was “did contract”. For the same compound, the “cell fractional shortening, myoblasts (elongated cells)” value ([9]; 600 mM K+, image analysis, n=12) was 31.6%±14.8% and the “cell fractional shortening, spherical proliferative precursor cells” value ([9]; 600 mM K+, image analysis, n=14) was 1.6%±16.2%.
